Patent US20230012368A1 (Hoffmann-La Roche Inc., priority 2018, published 2023)
Structures can show the parent of a compound that is named as a salt.

What follows are compounds tested on Acinetobacter baumannii ATCC 17978 (assay: Antimicrobial susceptibility testing: 90% growth inhibitory concentration (IC90) determination). Conditions: 90% growth inhibitory concentration; Acinetobacter baumannii ATCC17978; Iso-Sensitest broth, OD 600 nm over 16h; read-out: ATCC17978 IC90.
Assay type: cell-based
Method in brief: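 Growth of the Acinetobacter baumannii strain was followed by optical density at 600 nm every 20 minutes for 16h at 35±2° C. Inoculum was ~5×10^(5) CFU/ml in Iso-Sensitest medium, with twofold compound dilutions (e.g. 50 to 0.097 μM final). The 90% inhibitory concentration was derived in log-phase growth.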
Compound `CCc1cc(Nc2nccn3c(-c4ccc(OC(F)F)c(F)c4F)cnc23)ccc1C(=O)NC(CC)CCN` (stereo not shown) [Example 317, N-(1-aminopentan-3-yl)-4-[[3-[4-(difluoromethoxy)-2,3-difluorophenyl]imidazo[1,2-a]pyrazin-8-yl]amino]-2-ethylbenzamide; hydrochloride] has an IC90 of 2500 nM.

Same assay, conditions: Acinetobacter baumannii, ATCC17978, 16 h, 90% growth inhibitory concentration; Acinetobacter baumannii ATCC17978; Iso-Sensitest broth, OD 600 nm over 16h; read-out: ATCC17978 IC90
Compound `Cc1cc(Nc2nccn3c(-c4ccc(OC(F)F)cc4)cnc23)ccc1C(=O)N(C)CCCSc1nnnn1CCN(C)C` [Example 177, 4-[[3-[4-(difluoromethoxy)phenyl]im-idazo[1,2-a]pyrazin-8-yl]amino]-N-[3-[1-[2-(dimethylamino)ethyl]tetrazol-5-yl]sulfanylpropyl]-N,2-dimethylbenzamide;2,2,2-trifluoroacetic acid] has an IC90 of 900 nM.
With `CCc1cc(Nc2nccn3c(-c4ccc(OC)c(F)c4F)cnc23)ccc1C(=O)NCC(=O)NCCN` [Example 430, N-[2-(2-aminoethylamino)-2-oxo-ethyl]-4-[[3-(2,3-difluoro-4-methoxy-phenyl)imidazo[1,2-a]pyrazin-8-yl]amino]-2-ethyl-benzamide; formic acid] the IC90 was 230 nM.
In the case of `COc1ccc(-c2cnc3c(Nc4ccc(C(=O)NC(CO)CO)c(C)c4)nccn23)cc1` [Example 154], the IC90 is reported as 820 nM.
For `C=Cc1cc(Nc2nccn3c(-c4ccc(OC(F)F)cc4)cnc23)ccc1C(=O)N(C)CCN1CCNCC1` [Example 217, 4-[[3-[4-(difluoromethoxy)phenyl]im-idazo[1,2-a]pyrazin-8-yl]amino]-2-ethenyl-N-methyl-N-(2-piperazin-1-ylethyl)benzamide;hydrochlo-ride], the IC90 was 840 nM.
`CCc1cc(Nc2nccn3c(-c4ccc(OC(F)F)c(F)c4F)cnc23)ccc1C(=O)NCCCN1CCCC1` [Example 95, 4-((3-(4-(difluoromethoxy)-2,3-difluorophenyl)imidazo [1,2-a]pyrazin-8-yl)amino)-2-ethyl-N-(3-(pyrrolidin-1-yl)propyl)benzamide] was tested, and the IC90 was 190 nM.
In the case of `COc1ccc(-c2cnc3c(Nc4ccc(C(=O)NCCCN5CCNC(=O)C5)c(C)c4)nccn23)c(F)c1F` [Example 65, 4-((3-(2,3-difluoro-4-methoxyphenyl)imidazo [1,2-a]pyrazin-8-yl)amino)-2-methyl-N-(3-(3-oxopiperazin-1-yl)propyl)benzamide], the IC90 is reported as 120 nM.
For `CCc1cc(Nc2nccn3c(-c4ccc(OC)c(F)c4F)cnc23)ccc1C(=O)NCC1CCN(CC(=O)O)CC1` [Example 559, 2-[4-[[[4-[[3-(2,3-difluoro-4-methoxy-phenyl)imidazo[1,2-a]pyrazin-8-yl]amino]-2-ethyl-benzoyl]amino]methyl]-1-piperidyl]acetic acid], the IC90 was 270 nM.
`COc1ccc(-c2cnc3c(Nc4ccc(C(=O)NCCN5CCNCC5=O)c(C)c4)nccn23)cc1F` [Example 248, 4-[[3-(3-fluoro-4-methoxyphenyl)imidazo[1,2-a]pyrazin-8-yl]amino]-2-methyl-N-[2-(2-oxopiperazin-1-yl)ethyl]benzamide;hydrochlo-ride] was tested, and the IC90 was 2400 nM.
Compound `COc1ccc(-c2cnc3c(Nc4ccc(C(=O)N(C)CCCN5CCNCC5)c(C)c4)nccn23)cc1F` [Example 275, 4-[[3-(3-fluoro-4-methoxyphenyl)imidazo[1,2-a]pyrazin-8-yl]amino]-N,2-dimethyl-N-(3-piperazin-1-ylpropyl)benzamide] has an IC90 of 350 nM.
For `COc1ccc(-c2cnc3c(Nc4ccc(C(=O)N(C)C)cc4)nccn23)cc1Cl` [Example 180, 4-[[3-(3-chloro-4-methoxyphenyl)imidazo[1,2-a]pyrazin-8-yl]amino]-N,N-dimethylbenzamide;2,2,2-trifluoroacetic acid], the IC90 was 730 nM.
`CCc1cc(Nc2nccn3c(-c4ccc(OC)c(F)c4F)cnc23)ccc1C(=O)NCCNC(=O)N1CCN[C@H](C(=O)O)C1` [Example 350, (2S)-4-[2-[[4-[[3-(2,3-difluoro-4-methoxyphenyl)imidazo[1,2-a]pyrazin-8-yl]amino]-2-ethylbenzoyl]amino]ethylcar-bamoyl]piperazine-2-carboxylic acid;formic acid] showed an IC90 of 1200 nM.
`CCc1cc(Nc2nccn3c(-c4ccc(Oc5ccc(F)cn5)c(F)c4F)cnc23)ccc1C(=O)NCCNC(=O)[C@H](N)CCNC(=N)N` [Example 429, N-[2-[[(2R)-2-amino-4-guanidino-butanoyl]amino]ethyl]-4-[[3-[2,3-difluoro-4-[(5-fluoro-2-pyridyl)oxy]phenyl]imidazo [1,2-a]pyrazin-8-yl]amino]-2-ethyl-benzamide; formic acid] gave an IC90 of 620 nM.
In the case of `COc1ccc(-c2cnc3c(Nc4ccc(C(=O)NCC5CCN(C(=N)N)CC5)c(Cl)c4)nccn23)cc1F` [Example 296, N-[(1-carbamimidoylpiperidin-4-yl)methyl]-2-chloro-4-[[3-(3-fluoro-4-methoxyphenyl)imidazo[1,2-a]pyrazin-8-yl]amino]benzamide], the IC90 is reported as 150 nM.
For `CCc1cc(Nc2nccn3c(-c4ccc(OC)c(F)c4F)cnc23)ccc1C(=O)NCCCn1ccnc1` [Example 290, 4-[[3-(2,3-difluoro-4-methoxyphenyl)imidazo[1,2-a]pyrazin-8-yl]amino]-2-ethyl-N-(3-imidazol-1-ylpropyl)benzamide], the IC90 was 50 nM.
With `CCc1cc(Nc2nccn3c(-c4ccc(Oc5ccncn5)c(F)c4F)cnc23)ccc1C(=O)NCCCNC(=O)CCCNCCCN` [Example 563, N-[3-[4-(3-aminopropylamino)butanoyl-amino]propyl]-4-[[3-(2,3-difluoro-4-pyrimidin-4-yloxy-phenyl)imidazo[1,2-a]pyrazin-8-yl]amino]-2-ethyl-benzamide; formic acid] the IC90 was 190 nM.
Work on `COc1ccc(-c2cnc3c(Nc4ccc(C(=O)N(C)CCC5CCNCC5)c(C)c4)nccn23)c(F)c1F` [Example 63, 4-((3-(2,3-difluoro-4-methoxyphenyl)imidazo [1,2-a]pyrazin-8-yl)amino)-N,2-dimethyl-N-(2-(piperidin-4-yl)ethyl)benzamide] yielded an IC90 of 90 nM.
`CCc1cc(Nc2nccn3c(-c4ccc(OC)c(F)c4F)cnc23)ccc1C(=O)NCCCNC(=O)[C@@H](N)CNC(=N)N` [Example 359, N-[3-[[(2S)-2-amino-3-carbamimidamidopropanoyl]amino]propyl]-4-[[3-(2,3-difluoro-4-methoxyphenyl)imidazo[1,2-a]pyrazin-8-yl]amino]-2-ethylbenzamide] showed an IC90 of 60 nM.
In the case of `C=Cc1cc(Nc2nccn3c(-c4ccc(OC(F)F)cc4)cnc23)ccc1C(=O)NC` [Example 92, 4-((3-(4-(difluoromethoxy)phenyl)imidazo[1,2-a]pyrazin-8-yl)amino)-N-methyl-2-vinylbenzamide], the IC90 is reported as 610 nM.
`CN(CCC1CCNCC1)C(=O)c1ccc(Nc2nccn3c(-c4ccc(OC(F)F)cc4)cnc23)cc1Cl` [Example 23, 2-chloro-4-((3-(4-(difluoromethoxy)phenyl)imidazo[1,2-a]pyrazin-8-yl)amino)-N-methyl-N-(2-(piperidin-4-yl)ethyl)benzamide hydrochloride] gave an IC90 of 150 nM.
`Cc1cc(Nc2nccn3c(-c4ccc(OC(F)F)cc4)cnc23)ccc1C(=O)NCCCN1CCOCC1` [Example 209, 4-[[3-[4-(difluoromethoxy)phenyl]im-idazo[1,2-a]pyrazin-8-yl]amino]-2-methyl-N-(3-morpholin-4-ylpropyl)benzamide] showed an IC90 of 590 nM.
`CCc1cc(Nc2nccn3c(-c4ccc(OCC#N)c(F)c4F)cnc23)ccc1C(=O)NCCNC(=O)[C@@H](N)CCCNC(=N)N` [Example 124, N-[2-[[(2S)-2-amino-5-guanidino-pentanoyl]amino]ethyl]-4-[[3-[4-(cyanomethoxy)-2,3-difluoro-phenyl]imidazo[1,2-a]pyrazin-8-yl]amino]-2-ethyl-benzamide formate] showed an IC90 of 90 nM.
`CCc1cc(Nc2nccn3c(-c4ccc(OC(F)F)cc4)cnc23)ccc1C(=O)NCCN1CCNCC1` [Example 212, 4-[[3-[4-(difluoromethoxy)phenyl]im-idazo[1,2-a]pyrazin-8-yl]amino]-2-ethyl-N-(2-piperazin-1-ylethyl)benzamide;hydrochlo-ride] gave an IC90 of 640 nM.
For `CCc1cc(Nc2nccn3c(-c4ccc(Oc5ccc(OCCCN)cn5)c(F)c4F)cnc23)ccc1C(=O)N(C)C` [Example 510, 4-[[3-[4-[[5-(3-aminopropoxy)-2-pyridyl]oxy]-2,3-difluoro-phenyl]imidazo[1,2-a]pyrazin-8-yl]amino]-2-ethyl-N,N-dimethyl-benzamide; formic acid], the IC90 was 860 nM.
For `COc1ccc(-c2cnc3c(Nc4ccc(C(=O)N(C)CCN5CCCCC5)c(Cl)c4)nccn23)cc1F` [Example 237, 2-chloro-4-[[3-(3-fluoro-4-methoxyphenyl)imidazo[1,2-a]pyrazin-8-yl]amino]-N-methyl-N-(2-piperidin-1-ylethyl)benzamide], the IC90 was 1500 nM.
Work on `CCc1cc(Nc2nccn3c(-c4ccc(OC)c(F)c4F)cnc23)ccc1C(=O)NCCN1CCNCC1` [Example 323, 4-[[3-(2,3-difluoro-4-methoxyphenyl)imidazo[1,2-a]pyrazin-8-yl]amino]-2-ethyl-N-(2-piperazin-1-ylethyl)benzamide] yielded an IC90 of 60 nM.
In the case of `Cc1cc(Nc2nccn3c(-c4ccc(OC(F)F)cc4)cnc23)ccc1C(=O)N(C)CCN1CCCCC1` [Example 265, 4-[[3-[4-(difluoromethoxy)phenyl]im-idazo[1,2-a]pyrazin-8-yl]amino]-N,2-dimethyl-N-(2-piperidin-1-ylethyl)benzamide], the IC90 is reported as 5100 nM.
`N#CCOc1ccc(-c2cnc3c(Nc4ccc(C(=O)NCC5CCNCC5)c(Cl)c4)nccn23)c(F)c1F` [Example 79, 2-chloro-4-[[3-[4-(cyanomethoxy)-2,3-difluoro-phenyl]imidazo[1,2-a]pyrazin-8-yl]amino]-N-(4-piperidylmethyl) benzamide] was tested, and the IC90 was 90 nM.
